Molecules are shown by their SMILES.

From EP0178503A1, “Butenyl derivatives, process for their preparation and medicines containing them” (LUDWIG HEUMANN & CO GMBH, priority 1984, dated 1986) come the findings set out here.

The experiment has as its target T1, Histamin-H2-Rezeptoren (Cavia porcellus, UniProt P47747).
T1 construct: Kontraktionsfrequenz des isolierten rechten Atriums des Meerschweinchens; from tissue; host or cells: isolated guinea pig (right) atrium
In words: pA2 determination in vitro on guinea pig atrium (method of Ariens). It is filed as biochemical, Meerschweinchen. The settings on record: Meerschweinchenvorhof, H2-antagonistic activity, Molec. Pharmac., Band 1 (1964).

T1 sequence (P47747 whole entry): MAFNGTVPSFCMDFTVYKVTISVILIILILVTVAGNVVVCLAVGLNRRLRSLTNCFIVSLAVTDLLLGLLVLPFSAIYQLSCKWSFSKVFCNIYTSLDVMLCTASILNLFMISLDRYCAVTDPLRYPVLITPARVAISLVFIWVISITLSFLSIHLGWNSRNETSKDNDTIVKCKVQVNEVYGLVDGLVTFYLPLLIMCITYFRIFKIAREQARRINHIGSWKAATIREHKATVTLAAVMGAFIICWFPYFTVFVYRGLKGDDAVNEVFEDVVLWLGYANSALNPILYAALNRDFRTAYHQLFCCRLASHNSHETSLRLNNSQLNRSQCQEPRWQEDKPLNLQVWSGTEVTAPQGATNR
Excerpt: Die pharmakologische Aktivität dieser Verbindungen kann nach einer modifizierten Methode gemäß der DE OS 2734070 beim perfundierten Rattenmagen gezeigt werden oder durch die Ermittlung der pA2-Werte in vitro am Meerschweinchenvorhof (vergleiche Ariens, Molec. Pharmac., Band 1, Academic Press, New York, 1964) nachgewiesen werden.

What is called Kb is the equilibrium dissociation constant of an antagonist, usually derived from a functional assay. A high value points to lower antagonist affinity. `CNC(=C[N+](=O)[O-])NCC=CCOc1cccc(CN2CCCCC2)c1` [Beispiel 4, 1-Methylamino-1-[4-[3-(piperidinomethyl)phenoxy]but-2-enyl] amino-2-nitro-ethylen]: the Kb was 31.6 nM.
